{"source": "ChEMBL document CHEMBL1201862", "about": "“PubChem BioAssay data set” (2004)", "key": {"[1]": {"biological_target": "DNA damage-inducible transcript 3 protein (Mus musculus, UniProt P35639)", "sequence (P35639 whole entry)": "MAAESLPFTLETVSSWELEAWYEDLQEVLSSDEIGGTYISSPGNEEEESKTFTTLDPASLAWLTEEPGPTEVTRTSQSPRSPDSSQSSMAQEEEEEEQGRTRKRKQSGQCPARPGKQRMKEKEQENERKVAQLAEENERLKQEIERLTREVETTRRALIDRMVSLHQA", "assay_type": "functional, Cricetulus griseus"}, "[2]": {"biological_target": "E3 ubiquitin-protein ligase XIAP (Homo sapiens, UniProt P98170)", "sequence (P98170 whole entry)": "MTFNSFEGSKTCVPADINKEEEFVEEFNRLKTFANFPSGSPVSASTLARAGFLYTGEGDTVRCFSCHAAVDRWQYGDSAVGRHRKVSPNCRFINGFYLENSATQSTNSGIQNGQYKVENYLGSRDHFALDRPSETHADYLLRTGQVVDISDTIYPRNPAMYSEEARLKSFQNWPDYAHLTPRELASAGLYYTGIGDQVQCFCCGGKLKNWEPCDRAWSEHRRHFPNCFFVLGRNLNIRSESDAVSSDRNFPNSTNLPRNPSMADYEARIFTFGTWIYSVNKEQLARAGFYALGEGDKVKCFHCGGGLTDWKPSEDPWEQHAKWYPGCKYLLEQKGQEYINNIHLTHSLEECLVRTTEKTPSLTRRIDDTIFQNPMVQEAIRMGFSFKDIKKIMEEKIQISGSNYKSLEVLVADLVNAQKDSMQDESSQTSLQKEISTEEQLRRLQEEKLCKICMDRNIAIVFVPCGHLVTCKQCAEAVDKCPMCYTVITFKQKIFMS", "assay": "Counter Screen using XIAP-Bir3 for Chemical Antagonists of Bir1/2 domains of IAP-family anti-apoptotic proteins. [Related pubchem assays (depositor defined):AID1018, AID1449, AID1514, AID1638, AID1749, AID1750, AID488957, AID488963]"}, "[3]": {"biological_target": "DNA (cytosine-5)-methyltransferase 1 (Homo sapiens, UniProt P26358)", "sequence (P26358 whole entry)": "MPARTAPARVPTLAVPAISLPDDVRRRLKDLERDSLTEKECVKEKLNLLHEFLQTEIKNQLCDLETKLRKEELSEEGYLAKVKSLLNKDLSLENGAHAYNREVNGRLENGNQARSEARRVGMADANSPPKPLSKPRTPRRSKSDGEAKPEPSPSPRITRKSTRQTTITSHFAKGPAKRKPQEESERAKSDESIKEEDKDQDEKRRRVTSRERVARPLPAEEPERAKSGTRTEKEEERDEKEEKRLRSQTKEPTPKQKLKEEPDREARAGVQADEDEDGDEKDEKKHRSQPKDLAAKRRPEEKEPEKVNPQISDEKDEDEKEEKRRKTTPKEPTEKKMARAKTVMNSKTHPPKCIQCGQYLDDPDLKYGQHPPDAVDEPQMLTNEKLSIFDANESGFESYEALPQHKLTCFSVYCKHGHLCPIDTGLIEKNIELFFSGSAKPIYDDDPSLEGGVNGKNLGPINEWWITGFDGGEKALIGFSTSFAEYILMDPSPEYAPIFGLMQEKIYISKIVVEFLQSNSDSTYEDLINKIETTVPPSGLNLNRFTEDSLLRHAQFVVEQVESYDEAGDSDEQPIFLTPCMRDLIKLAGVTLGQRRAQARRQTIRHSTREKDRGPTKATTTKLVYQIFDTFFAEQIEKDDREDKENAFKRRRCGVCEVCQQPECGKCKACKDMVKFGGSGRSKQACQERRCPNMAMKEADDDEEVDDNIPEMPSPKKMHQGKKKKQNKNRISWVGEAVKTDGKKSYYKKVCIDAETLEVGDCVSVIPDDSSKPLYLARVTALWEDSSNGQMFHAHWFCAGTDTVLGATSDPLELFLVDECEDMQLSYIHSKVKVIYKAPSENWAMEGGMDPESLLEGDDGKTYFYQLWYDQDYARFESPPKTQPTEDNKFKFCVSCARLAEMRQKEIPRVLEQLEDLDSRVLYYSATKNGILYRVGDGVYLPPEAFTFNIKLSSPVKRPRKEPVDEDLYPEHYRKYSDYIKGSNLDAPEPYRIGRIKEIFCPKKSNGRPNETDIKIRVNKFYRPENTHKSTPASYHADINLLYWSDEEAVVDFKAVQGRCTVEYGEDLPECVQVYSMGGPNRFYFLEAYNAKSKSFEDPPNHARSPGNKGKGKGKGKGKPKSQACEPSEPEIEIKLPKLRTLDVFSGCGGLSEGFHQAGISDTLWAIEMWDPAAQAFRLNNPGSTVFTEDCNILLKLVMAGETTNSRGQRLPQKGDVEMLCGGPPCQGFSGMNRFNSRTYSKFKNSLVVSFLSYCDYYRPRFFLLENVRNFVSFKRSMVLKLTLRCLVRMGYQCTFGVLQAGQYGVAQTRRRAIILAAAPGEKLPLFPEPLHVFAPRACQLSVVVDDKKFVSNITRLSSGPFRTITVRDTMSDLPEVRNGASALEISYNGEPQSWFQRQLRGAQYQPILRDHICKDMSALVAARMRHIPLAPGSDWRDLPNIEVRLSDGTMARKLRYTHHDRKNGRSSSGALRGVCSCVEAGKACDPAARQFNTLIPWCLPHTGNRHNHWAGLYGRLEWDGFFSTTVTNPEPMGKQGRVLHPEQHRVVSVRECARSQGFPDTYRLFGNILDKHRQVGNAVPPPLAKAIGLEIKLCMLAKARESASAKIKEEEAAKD", "assay": "DNMT1 methyltransferase inhibitors, confirmation, biochemical, fluorescent molecular beacon (AID 602386)", "assay_type": "functional"}, "[4]": {"assay": "inhibitors of Vif binding to APOBEC3G peptide, primary screen, biochemical, TR-FRET, GST-Vif 1-94, biotin-A3G peptide, dose response retest (AID 1117319);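 note: inhibitors lower the FRET signal by blocking Vif and A3G binding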", "assay_type": "functional"}, "Cytochrome P450 1A2": {"biological_target": "T1, Cytochrome P450 1A2 (Homo sapiens, UniProt P05177)", "T1 sequence (P05177 whole entry)": "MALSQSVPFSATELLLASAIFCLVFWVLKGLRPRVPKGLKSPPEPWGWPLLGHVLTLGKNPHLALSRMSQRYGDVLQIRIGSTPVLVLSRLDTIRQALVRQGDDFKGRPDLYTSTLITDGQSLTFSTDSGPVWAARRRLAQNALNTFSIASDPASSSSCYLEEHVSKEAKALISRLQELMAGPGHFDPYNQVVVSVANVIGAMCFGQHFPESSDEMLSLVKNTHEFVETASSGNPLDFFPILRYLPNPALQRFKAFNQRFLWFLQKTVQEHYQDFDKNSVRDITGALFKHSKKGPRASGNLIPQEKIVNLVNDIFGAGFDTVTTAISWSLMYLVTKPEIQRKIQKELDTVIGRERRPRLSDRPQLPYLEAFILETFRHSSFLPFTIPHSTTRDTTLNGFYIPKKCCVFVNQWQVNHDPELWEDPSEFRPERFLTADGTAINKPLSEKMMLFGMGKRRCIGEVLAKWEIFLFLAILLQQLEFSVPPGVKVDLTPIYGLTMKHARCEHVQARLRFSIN"}, "cells": {"assay": "cells", "assay_type": "functional, cell-based"}, "[5]": {"assay": "Luminescence Cell-Based Dose Response HTS to Identify Inhibitors of 5'UTR Stem-Loop Driven Prion Protein mRNA Translation in H4 Neuroglioblastoma Cells. [Related pubchem assays: 1827 (Project Summary), 1813 (Primary HTS)]", "assay_type": "functional"}, "[6]": {"assay": "HeLa cell cytotoxicity, dose response, cytotoxicity control for MgcRacGAP inhibitor project (AID 624300)", "assay_type": "functional"}, "Beta-galactosidase": {"biological_target": "Beta-galactosidase (Escherichia coli, UniProt Q8VNN2)", "sequence (Q8VNN2 whole entry)": "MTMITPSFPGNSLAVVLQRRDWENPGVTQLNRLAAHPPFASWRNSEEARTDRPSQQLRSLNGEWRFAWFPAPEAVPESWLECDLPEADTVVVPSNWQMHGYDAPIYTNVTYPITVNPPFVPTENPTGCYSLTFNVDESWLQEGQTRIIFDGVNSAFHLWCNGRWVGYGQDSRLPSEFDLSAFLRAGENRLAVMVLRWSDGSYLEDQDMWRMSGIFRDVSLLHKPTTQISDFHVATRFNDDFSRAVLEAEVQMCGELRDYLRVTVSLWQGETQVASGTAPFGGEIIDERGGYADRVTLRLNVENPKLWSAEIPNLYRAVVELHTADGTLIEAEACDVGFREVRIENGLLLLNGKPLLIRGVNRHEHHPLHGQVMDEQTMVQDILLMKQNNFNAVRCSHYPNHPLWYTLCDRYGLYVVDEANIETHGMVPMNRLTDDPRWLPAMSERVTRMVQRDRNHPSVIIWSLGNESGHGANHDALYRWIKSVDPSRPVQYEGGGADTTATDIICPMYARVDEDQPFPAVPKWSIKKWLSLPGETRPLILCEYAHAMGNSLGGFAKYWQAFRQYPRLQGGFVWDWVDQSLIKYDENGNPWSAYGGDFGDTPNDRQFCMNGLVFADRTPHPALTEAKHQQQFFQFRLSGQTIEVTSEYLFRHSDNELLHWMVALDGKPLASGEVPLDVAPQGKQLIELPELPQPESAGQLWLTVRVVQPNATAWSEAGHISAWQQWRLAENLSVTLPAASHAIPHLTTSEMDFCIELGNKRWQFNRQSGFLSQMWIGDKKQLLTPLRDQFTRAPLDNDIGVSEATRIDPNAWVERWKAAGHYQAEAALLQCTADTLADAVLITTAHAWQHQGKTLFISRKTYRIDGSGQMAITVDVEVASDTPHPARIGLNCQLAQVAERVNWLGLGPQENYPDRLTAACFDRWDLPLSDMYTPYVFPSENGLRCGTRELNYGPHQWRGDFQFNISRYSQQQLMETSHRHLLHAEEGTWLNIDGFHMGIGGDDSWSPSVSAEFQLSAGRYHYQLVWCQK", "assay": "beta-galactosidase enzyme inhibitors and activators, dose response, artefact control for CCR6 antagonist project, biochemical, E. coli enzyme, set 3 (AID 504712)", "assay_type": "functional"}, "[7]": {"biological_target": "T2, Sentrin-specific protease 8 (Homo sapiens, UniProt Q96LD8)", "T2 sequence (Q96LD8 whole entry)": "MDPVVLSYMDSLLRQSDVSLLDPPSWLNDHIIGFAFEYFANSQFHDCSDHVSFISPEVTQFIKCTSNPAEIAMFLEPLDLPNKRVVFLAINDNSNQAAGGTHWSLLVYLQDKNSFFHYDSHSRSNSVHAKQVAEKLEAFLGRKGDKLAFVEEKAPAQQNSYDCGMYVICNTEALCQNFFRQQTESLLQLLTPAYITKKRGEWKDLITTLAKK", "assay_type": "functional"}, "Caspase-3": {"biological_target": "T3, Caspase-3 (Homo sapiens, UniProt P42574)", "T3 sequence (P42574 whole entry)": "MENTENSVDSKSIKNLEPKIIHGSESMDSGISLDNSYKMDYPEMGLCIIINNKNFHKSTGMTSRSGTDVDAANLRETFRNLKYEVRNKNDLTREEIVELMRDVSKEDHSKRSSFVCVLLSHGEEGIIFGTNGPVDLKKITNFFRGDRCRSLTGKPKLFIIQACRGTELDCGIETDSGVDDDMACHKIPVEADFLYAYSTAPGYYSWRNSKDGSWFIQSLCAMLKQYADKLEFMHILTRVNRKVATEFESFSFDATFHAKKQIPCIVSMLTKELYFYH", "assay": "Dose-response confirmation of uHTS inhibitor hits of Sentrin-Specific Protease 8 in a Caspase-3 Fluorescence assay.", "assay_type": "functional"}, "[8]": {"biological_target": "Glutathione-S-transferase (Schistosoma japonicum, UniProt Q26513)", "sequence (Q26513 whole entry)": "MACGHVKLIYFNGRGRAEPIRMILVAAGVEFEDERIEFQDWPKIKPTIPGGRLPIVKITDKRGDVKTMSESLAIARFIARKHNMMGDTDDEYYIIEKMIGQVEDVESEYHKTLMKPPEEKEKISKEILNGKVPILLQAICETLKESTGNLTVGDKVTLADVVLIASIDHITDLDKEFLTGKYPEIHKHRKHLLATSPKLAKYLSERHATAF", "assay": "biotin-GST/anti-GST TR-FRET signal inhibitors, dose response, artefact control for Vif-APOBEC3G degradation inhibitor project, biochemical (AID 1117362)", "assay_type": "functional"}, "Aminopeptidase N": {"biological_target": "T4, Aminopeptidase N (Plasmodium falciparum FcB1/Columbia, UniProt O96935)", "T4 sequence (O96935 whole entry)": "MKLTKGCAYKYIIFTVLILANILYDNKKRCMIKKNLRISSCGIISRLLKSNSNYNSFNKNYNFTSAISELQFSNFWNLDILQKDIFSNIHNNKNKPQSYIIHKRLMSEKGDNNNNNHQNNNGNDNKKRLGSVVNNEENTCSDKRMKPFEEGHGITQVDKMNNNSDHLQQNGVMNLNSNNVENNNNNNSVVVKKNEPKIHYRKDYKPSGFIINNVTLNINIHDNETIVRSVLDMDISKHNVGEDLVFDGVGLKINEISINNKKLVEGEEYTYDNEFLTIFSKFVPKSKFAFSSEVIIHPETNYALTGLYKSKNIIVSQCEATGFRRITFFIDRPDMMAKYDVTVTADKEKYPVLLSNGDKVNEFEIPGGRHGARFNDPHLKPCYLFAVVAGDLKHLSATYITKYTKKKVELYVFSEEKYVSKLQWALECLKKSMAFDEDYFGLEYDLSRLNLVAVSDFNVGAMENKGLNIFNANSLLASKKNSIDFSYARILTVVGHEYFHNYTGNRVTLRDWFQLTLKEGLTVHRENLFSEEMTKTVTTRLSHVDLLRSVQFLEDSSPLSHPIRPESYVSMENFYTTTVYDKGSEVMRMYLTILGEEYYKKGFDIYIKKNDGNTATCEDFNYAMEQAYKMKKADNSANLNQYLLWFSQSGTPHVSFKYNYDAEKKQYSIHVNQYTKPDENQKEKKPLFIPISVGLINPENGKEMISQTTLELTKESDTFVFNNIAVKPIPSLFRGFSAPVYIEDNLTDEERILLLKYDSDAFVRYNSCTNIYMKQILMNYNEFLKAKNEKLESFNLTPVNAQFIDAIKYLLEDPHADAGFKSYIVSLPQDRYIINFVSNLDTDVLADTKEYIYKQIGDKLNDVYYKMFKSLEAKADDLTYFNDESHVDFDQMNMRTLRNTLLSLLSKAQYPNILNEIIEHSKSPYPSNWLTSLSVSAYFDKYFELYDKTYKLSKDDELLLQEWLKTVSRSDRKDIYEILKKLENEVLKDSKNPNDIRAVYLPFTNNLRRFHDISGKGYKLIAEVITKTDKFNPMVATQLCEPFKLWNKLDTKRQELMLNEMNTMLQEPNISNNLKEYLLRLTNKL", "assay": "P. falciparum M1AAP inhibitors, biochemical, fluorogenic H-Leu-NHMec substrate, 1536-well (AID 1445)", "design": "species or system Plasmodium falciparum 3D7, 3D7"}}, "note": "Active and inactive are the calls of the source.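 Throughout, for AC50: PubChem cytochrome P450 panel assay, CYP1A2 panel member.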", "data": [{"smiles": "CCc1nnc(NS(=O)(=O)c2ccc(NC(=S)NC(=O)/C=C/c3ccc(C(C)C)cc3)cc2)s1", "values": [{"measurement": "Absolute IC50 (CHOP)", "setting": "[1]", "result": 10, "unit": "µM"}, {"measurement": "IC50", "setting": "[2]", "result": "> 20 µM (inactive)"}, {"measurement": "IC50", "setting": "[3]", "result": "6.16 µM (active)"}]}, {"smiles": "O=C(/C=C/c1ccco1)Nc1ccc(Oc2ccccc2)cc1", "values": [{"measurement": "IC50", "setting": "[4]", "result": "> 100 µM (active)"}, {"measurement": "AC50", "setting": "Cytochrome P450 1A2", "result": "20 µM (inconclusive)"}, {"measurement": "EC50", "setting": "cells", "result": "6.08 µM (active)"}]}, {"smiles": "O=C1C(Nc2ccc(O)cc2)=C/C(=N/S(=O)(=O)c2cccs2)c2ccccc21", "values": [{"measurement": "EC50", "setting": "[5]", "result": "0.236 µM (active)"}, {"measurement": "CC50", "setting": "[6]", "result": "2.59 µM (active)"}, {"measurement": "IC50", "setting": "Beta-galactosidase", "result": "> 66.6 µM (inactive)"}]}, {"smiles": "COC(=O)C(O)(c1c(C)[nH]n(-c2ccccc2)c1=O)C(F)(F)F", "note": "(stereo not drawn)", "values": [{"measurement": "IC50", "setting": "[7]", "result": "2.43 µM (active)"}, {"measurement": "IC50", "setting": "Caspase-3", "result": "68.9 µM (inactive)"}]}, {"smiles": "CC1CC(=O)c2c(cc3c(-c4c(O)cc(O)c5c(O)c6c(cc45)OC(C)CC6=O)c(O)cc(O)c3c2O)O1", "note": "(stereo not drawn) [CEPHALOCHROMIN]", "values": [{"measurement": "IC50", "setting": "[8]", "result": "> 100 µM (active)"}, {"measurement": "IC50", "setting": "Aminopeptidase N", "result": "64.9 µM (active)"}]}]}
